Measurements as given in patent publication US20080261994A1, “CYCLOPROPANE COMPOUNDS AND PHARMACEUTICAL USE THEREOF” (Japan Tobacco Inc., priority 2003, published 2008).
Where two headings read alike, the source gives them in different places.

Assays:
Type in all cases: biochemical
aggrecanase-1 = biological target: T1, aggrecanase-1 (Homo sapiens, UniProt O75173); test: Aggrecanase-1 inhibitory action (Particle Assay, GAG release from aggrecan-containing polyacrylamide particles)
T1 sequence (O75173 213-837): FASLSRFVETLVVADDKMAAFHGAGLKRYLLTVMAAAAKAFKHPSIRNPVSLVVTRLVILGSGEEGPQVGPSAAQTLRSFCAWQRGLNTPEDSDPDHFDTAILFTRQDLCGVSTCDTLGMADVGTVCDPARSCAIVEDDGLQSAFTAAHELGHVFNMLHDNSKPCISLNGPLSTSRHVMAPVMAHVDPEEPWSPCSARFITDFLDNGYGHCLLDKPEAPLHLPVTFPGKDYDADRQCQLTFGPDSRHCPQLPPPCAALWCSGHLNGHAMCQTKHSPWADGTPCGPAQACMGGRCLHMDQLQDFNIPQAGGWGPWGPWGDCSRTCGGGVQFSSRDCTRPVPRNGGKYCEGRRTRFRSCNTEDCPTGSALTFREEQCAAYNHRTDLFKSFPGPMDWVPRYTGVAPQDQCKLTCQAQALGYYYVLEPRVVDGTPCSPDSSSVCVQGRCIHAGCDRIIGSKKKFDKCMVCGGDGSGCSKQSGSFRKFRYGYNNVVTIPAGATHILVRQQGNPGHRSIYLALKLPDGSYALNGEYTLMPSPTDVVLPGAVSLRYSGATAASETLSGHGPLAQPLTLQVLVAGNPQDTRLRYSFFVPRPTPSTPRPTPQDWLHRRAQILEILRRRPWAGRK
Summary of the method: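 Readout was dimethylmethylene blue absorbance (595 nm) of glycosaminoglycan liberated into supernatant, calibrated with whale chondroitin sulfate. Substrate was aggrecan in polyacrylamide particles, digested 15 h at 37° C in Tris-HCl; TC50 (μM) derived from inhibition relative to no-enzyme and no-inhibitor controls.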

MMP-1 = biological target: T2, MMP-1 (Homo sapiens, UniProt P03956); test: MMP-1 inhibitory action (Type I collagen Activity Measurement kit, FITC-labeled collagen type I)
T2 sequence (P03956 100-469): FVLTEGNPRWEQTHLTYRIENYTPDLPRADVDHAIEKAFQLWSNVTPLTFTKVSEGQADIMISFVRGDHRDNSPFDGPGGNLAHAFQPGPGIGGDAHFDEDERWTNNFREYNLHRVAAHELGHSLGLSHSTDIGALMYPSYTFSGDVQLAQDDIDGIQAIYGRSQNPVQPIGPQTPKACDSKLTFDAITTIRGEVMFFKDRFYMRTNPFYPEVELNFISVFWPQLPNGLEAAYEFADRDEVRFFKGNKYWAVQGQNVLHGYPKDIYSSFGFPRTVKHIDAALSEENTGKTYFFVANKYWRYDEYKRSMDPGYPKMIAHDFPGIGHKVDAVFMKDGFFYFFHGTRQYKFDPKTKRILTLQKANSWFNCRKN

Recombinant Human MMP-13 = biological target: T3, Recombinant Human MMP-13 (Homo sapiens, UniProt P45452); test: MMP-13 inhibitory activity (MMP-13 specific fluorescent substrate with quencher)
T3 construct: purchased R&D systems 511-MM
Summary of the method: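 IC50 (μM) derived from % inhibition, normalised to wells without enzyme and without inhibitor, fluorescence read at 325/405 nm. Enzyme and compound preceded addition of the quenched 7-MCA…DPA substrate; Tris-HCl buffer, 25 °C for 1 h, acetic-acid stop.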

[1] = Experimental Example 1, read-out: IC50 AG1
[2] = Experimental Example 2, read-out: IC50 MMP1
[3] = Experimental Example 3, read-out: IC50 MMP13
[4] = aggrecanase-1 inhibitory action, read-out: IC50 AG1 (Experimental Example 1)
[5] = MMP-1 inhibitory action, FITC-labeled collagen type I, 37° C. for 3 hr, read-out: IC50 MMP1 (Experimental Example 2)
[6] = Recombinant Human MMP-13, fluorescent substrate, 25° C. for 1 h, read-out: IC50 MMP13 (Experimental Example 3)

Row | Structure (SMILES) | IC50 (aggrecanase-1; [1]) [nM] | IC50 (MMP-1; [2]) [nM] | IC50 (Recombinant Human MMP-13; [3]) [nM] | IC50 (aggrecanase-1; [4]) [nM] | IC50 (MMP-1; [5]) [nM] | IC50 (Recombinant Human MMP-13; [6]) [nM]
1 | CC1[C@H](c2ccccc2)[C@]1(NS(=O)(=O)c1ccc(OCc2ccc(Cl)cc2Cl)cc1)C(=O)O (stereo partly drawn) [Example 2-324] | ≥ 1000 | ≥ 10000 | ≥ 1000 |  |  | 
2 | O=C(O)C1(NS(=O)(=O)c2ccc3c(c2)Cc2cc(Cl)ccc2-3)CC1c1ccccc1 (stereo not drawn) [Example 1-94] |  |  |  | < 100 | ≥ 1000 | < 100
3 | CCOC(=O)c1cccc(-c2ccc(S(=O)(=O)N[C@@]3(C(=O)O)C[C@]3(C)c3ccccc3)s2)c1 [Example 2-478] | ≥ 1000 | ≥ 10000 | ≥ 10000 |  |  | 
4 | C[C@]1(c2ccccc2)C[C@@]1(NS(=O)(=O)c1ccc(-c2cc(C(F)F)on2)s1)C(=O)O [Example 2-382] | < 100 | < 1000 | < 1000 |  |  | 
5 | CC1[C@H](c2ccccc2)[C@]1(NS(=O)(=O)N1CCn2c(nc3cc(Cl)ccc32)C1)C(=O)O (stereo partly drawn) [Example 2-445] | < 1000 | ≥ 10000 | < 1000 |  |  | 
6 | O=C(O)C1(NS(=O)(=O)c2ccc(-c3ccc(Cl)cc3)s2)CC1c1ccccc1Oc1cccnc1 (stereo not drawn) [Example 2-24] |  |  |  | < 1000 | ≥ 10000 | < 1000
7 | O=C(CN1CCOCC1)Nc1cccc(C2CC2(NS(=O)(=O)c2ccc(-c3ccc(Cl)cc3)s2)C(=O)O)c1 (stereo not drawn) [Example 2-261] |  |  |  | < 1000 | ≥ 10000 | < 1000
8 | O=C(O)CCc1ccccc1C1CC1(NS(=O)(=O)c1ccc(-c2ccc(Cl)cc2)s1)C(=O)O (stereo not drawn) [Example 2-179] |  |  |  | < 100 | ≥ 10000 | < 1000
9 | CCC(=O)c1ccc(S(=O)(=O)NC2(C(=O)O)CC2c2ccccc2)s1 (stereo not drawn) [Example 2-116] |  |  |  | ≥ 10000 | ≥ 10000 | ≥ 10000
10 | CC(C)OCCNC(=O)OCC1(c2ccccc2)CC1(NS(=O)(=O)c1ccc(-c2cc(C(F)(F)F)on2)s1)C(=O)O (stereo not drawn) [Example 2-308] | < 1000 | ≥ 1000 | < 1000 |  |  | 
11 | C[C@]1(c2ccccc2)C[C@@]1(NS(=O)(=O)c1ccc(-c2cc(O)c(F)c(F)c2)s1)C(=O)O [Example 2-601] | < 1000 | ≥ 1000 | ≥ 1000 |  |  | 
12 | O=C(NCCO)c1cccc(C2CC2(NS(=O)(=O)c2ccc(-c3ccc(Cl)cc3)s2)C(=O)O)c1 (stereo not drawn) [Example 2-75] |  |  |  | < 1000 | ≥ 10000 | < 1000
13 | CN(C)c1cc(-c2ccc(S(=O)(=O)N[C@@]3(C(=O)O)C[C@]3(C)c3ccccc3)s2)ccc1Cl [Example 2-488] | ≥ 1000 | ≥ 10000 | ≥ 1000 |  |  | 
14 | O=C(O)C1(NS(=O)(=O)c2ccc(-c3ccc(Cl)cc3)s2)CC1(CCO)c1ccccc1 (stereo not drawn) [Example 2-263] |  |  |  | < 100 | ≥ 1000 | < 1000
15 | CC(=O)c1ccc(S(=O)(=O)NC2(C(=O)O)CC2c2ccccc2)cc1 (stereo not drawn) [Example 2-80] |  |  |  | ≥ 10000 | ≥ 10000 | ≥ 10000
16 | O=C(OCCCc1cccc(C2CC2(NS(=O)(=O)c2ccc(-c3cc(C(F)(F)F)on3)s2)C(=O)O)c1)N1CCOCC1 (stereo not drawn) [Example 2-239] |  |  |  | < 100 | ≥ 1000 | < 100
17 | O=C(O)C1(NS(=O)(=O)c2ccc(-c3cc(C(F)(F)F)on3)s2)CC1c1cc(CCO)on1 (stereo not drawn) [Example 2-315] | < 1000 | ≥ 10000 | < 1000 |  |  | 
18 | O=C(O)C1(NS(=O)(=O)c2ccc(-c3ccc(Cl)cc3)s2)CC1COc1ccccc1 (stereo not drawn) [Example 2-52] |  |  |  | < 1000 | ≥ 10000 | < 1000
19 | O=C(O)c1ccccc1C1CC1(NS(=O)(=O)c1ccc(-c2ccc(Cl)cc2)s1)C(=O)O (stereo not drawn) [Example 2-196] |  |  |  | < 100 | ≥ 1000 | < 100
20 | CC1[C@H](c2ccccc2)[C@]1(NS(=O)(=O)c1ccc(-n2cc(C(=O)O)cn2)s1)C(=O)O (stereo partly drawn) [Example 2-522] | ≥ 1000 | ≥ 1000 | < 100 |  |  | 

Row | Structure (SMILES) | IC50 (aggrecanase-1; [1]) [nM] | IC50 (MMP-1; [2]) [nM] | IC50 (Recombinant Human MMP-13; [3]) [nM] | IC50 (aggrecanase-1; [4]) [nM] | IC50 (MMP-1; [5]) [nM] | IC50 (Recombinant Human MMP-13; [6]) [nM]
21 | C[C@]1(c2ccccc2)C[C@@]1(NS(=O)(=O)c1ccc(-c2ccc(C(F)(F)F)cc2)s1)C(=O)O [Example 2-572] | < 100 | ≥ 1000 | < 100 |  |  | 
22 | O=C(O)C1(NS(=O)(=O)c2ccc(-c3ccc(Cl)cc3)s2)CC1c1cccc(OCCN2CCOCC2)c1 (stereo not drawn) [Example 2-197] |  |  |  | < 1000 | ≥ 10000 | < 1000
23 | CC1[C@H](c2ccccc2)[C@]1(NS(=O)(=O)N1CCN(c2ccc(C(F)(F)F)cc2)CC1)C(=O)O (stereo partly drawn) [Example 2-428] | < 1000 | ≥ 1000 | < 100 |  |  | 
24 | CCCc1cc(-c2ccc(S(=O)(=O)N[C@@]3(C(=O)O)C[C@@H]3c3ccccc3)s2)no1 [Example 2-90] |  |  |  | ≥ 1000 | ≥ 1000 | < 100
25 | O=C(O)C1(NS(=O)(=O)c2cn3cc(-c4ccccc4)nc3s2)CC1c1ccccc1 (stereo not drawn) [Example 2-489] | ≥ 1000 | ≥ 10000 | < 100 |  |  | 
26 | O=C(O)[C@]1(NS(=O)(=O)/C=C/c2ccccc2)C[C@@H]1c1ccccc1 [Example 2-140] |  |  |  | ≥ 10000 | ≥ 10000 | ≥ 1000
27 | O=C(O)C1(NS(=O)(=O)c2ccc(-c3ccc(Cl)cc3)cc2)CC1c1cccc(-c2ccccc2)c1 (stereo not drawn) [Example 1-26] |  |  |  | < 1000 | ≥ 10000 | < 1000
28 | CC1[C@H](c2ccccc2)[C@]1(NS(=O)(=O)c1ccc2nc(-c3ccccc3)[nH]c2c1)C(=O)O (stereo partly drawn) [Example 2-596] | < 1000 | ≥ 1000 | < 1000 |  |  | 
29 | O=C(O)[C@]1(NS(=O)(=O)/C=C/c2ccc(Cl)cc2)C[C@@H]1c1ccccc1 [Example 2-151] |  |  |  | ≥ 10000 | ≥ 10000 | ≥ 1000
30 | CC(F)(F)c1cc(-c2ccc(S(=O)(=O)N[C@@]3(C(=O)O)C[C@]3(C)c3ccccc3)s2)no1 [Example 2-107] |  |  |  | < 100 | < 1000 | < 100
31 | O=C(O)c1ccc(S(=O)(=O)NC2(C(=O)O)CC2c2ccccc2)s1 (stereo not drawn) [Example 2-103] |  |  |  | ≥ 10000 | ≥ 10000 | ≥ 10000
32 | CN1CCN(c2ccc(C3CC3(NS(=O)(=O)c3ccc(-c4ccc(Cl)cc4)s3)C(=O)O)cc2)CC1 (stereo not drawn) [Example 2-246] |  |  |  | ≥ 1000 | ≥ 10000 | < 1000
33 | O=C(O)C1(NS(=O)(=O)c2ccc(-c3ccc(Cl)cc3)cc2)CC1c1cccc(Oc2ccccc2)c1 (stereo not drawn) [Example 1-10] |  |  |  | < 1000 | ≥ 1000 | < 1000
34 | Cc1cc(C2CC2(NS(=O)(=O)c2ccc(-c3cc(C(F)(F)F)on3)s2)C(=O)O)on1 (stereo not drawn) [Example 2-311] | < 1000 | ≥ 1000 | < 1000 |  |  | 
35 | COc1ccc(CN2CCN(S(=O)(=O)N[C@@]3(C(=O)O)C(C)[C@@H]3c3ccccc3)CC2)cc1 (stereo partly drawn) [Example 2-536] | ≥ 1000 | ≥ 1000 | ≥ 1000 |  |  | 
36 | COC(=O)N1CC=C(c2ccc(S(=O)(=O)N[C@@]3(C(=O)O)C[C@@H]3c3ccccc3)s2)CC1 [Example 2-3, 4-[5-((1S,2R)-1-carboxy-2-phenyl-cyclopropanesulfamoyl)-thiophene-2-yl]-3,6-dihydro-2H-pyridin-1-carboxylic acid methyl ester] |  |  |  | ≥ 1000 | ≥ 10000 | ≥ 1000
37 | O=C(O)C1(NS(=O)(=O)c2ccc(-c3cc(C(F)(F)F)on3)s2)C2CCOc3ccccc3C21 (stereo not drawn) [Example 2-370] | < 100 | < 1000 | < 100 |  |  | 
38 | O=C(O)C1(NS(=O)(=O)c2ccc(-c3ccc(Cl)cc3)cc2)CC1c1cccc(Oc2ccc(Cl)cc2)c1 (stereo not drawn) [Example 1-11] |  |  |  | < 1000 | ≥ 1000 | < 1000
39 | COc1ccc(N2CCN(S(=O)(=O)NC3(C(=O)O)CC3c3ccccc3)CC2)cc1 (stereo not drawn) [Example 2-64] |  |  |  | ≥ 10000 | ≥ 10000 | ≥ 1000
